Measurements from patent publication US20090143752A1, “Passive intraocular drug delivery devices and associated methods” (priority 2007, published 2009).

Tests used:
[1] = New Zealand White, rabbit, in vivo, 4 h
Protocol: A 100 microliter/30 G needle Hamilton syringe is used to administer a sub conjunctiva injection (n=2) of 20 microliters of 0.1M DSP at pH 7 into an eye of a New Zealand White Rabbit. The initial dose of DSP is 1.04 mg. […] The process is repeated for a total of 2 trials. About 23 micrograms of the approximate 1.04 mg subconjunctival injection of DSP are recovered from the whole eye after 4 hours. This illustrates the clearance effects of the transscleral pathway; in this case about 97.8 percent of the drug cleared the eye within four hours.

[2] = DSP in eye tissues after passive delivery from six chambered annular lens-shaped housing, immediate release (Example 2); type: in vivo, New Zealand White Rabbit; conditions: rabbit eye, 0.5 M DSP pH 7, 6.47 mgs in each of 3 chambers, housing on eye 20 minutes, 4 hours after application
Protocol: A six chambered annular lens-shaped housing is used to passively administer dexamethasone sodium phosphate (DSP) into the eye for immediate release. Chambers 1, 3, and 5 each contain a 2 mm Avalon Sponge hydrated with 25 μl of hydrogel and are further loaded with 6.47 mgs of 0.5 M DSP at pH 7 in each chamber. […] The process is repeated for a total of 4 trials.

percent of the drug cleared the eye [1]: about 97.8%
DSP Total Drug, Conjunctiva [2]: 6.2 ± 0.8 micrograms
DSP Total Drug, Retina/Choroid [2]: 1.1 ± 0.5 micrograms
DSP Total Drug, Sclera [2]: 4.3 ± 1.0 micrograms
DSP Total Drug, Whole Eye [2]: 14.9 ± 1.1 micrograms
SMILES: C[C@@H]1C[C@H]2[C@@H]3CCC4=CC(=O)C=C[C@]4(C)[C@@]3(F)[C@@H](O)C[C@]2(C)[C@@]1(O)C(=O)COP(=O)(O)O [DSP, dexamethasone sodium phosphate]
